From patent US20250115597A1, “TYK2 INHIBITORS AND COMPOSITIONS AND METHODS THEREOF” (LYNK PHARMACEUTICALS CO. LTD., priority 2021, published 2025)
Like-named read-outs stand apart in the source and are kept apart here.

Legend:
TYK2-JH2 domain = biological target: T1, TYK2-JH2 domain (Homo sapiens, UniProt P29597); experiment: Binding activity test for JH2 domain of TYK2 (Tb-antibody/tracer FRET); conditions: for JAK1/TYK2 selectivity: ratio JAK1-JH2 IC50 / TYK2-JH2 IC50
T1 construct: IC50 on JH2 domain activity (nM)
T1 sequence (P29597 589-875 limits assumed): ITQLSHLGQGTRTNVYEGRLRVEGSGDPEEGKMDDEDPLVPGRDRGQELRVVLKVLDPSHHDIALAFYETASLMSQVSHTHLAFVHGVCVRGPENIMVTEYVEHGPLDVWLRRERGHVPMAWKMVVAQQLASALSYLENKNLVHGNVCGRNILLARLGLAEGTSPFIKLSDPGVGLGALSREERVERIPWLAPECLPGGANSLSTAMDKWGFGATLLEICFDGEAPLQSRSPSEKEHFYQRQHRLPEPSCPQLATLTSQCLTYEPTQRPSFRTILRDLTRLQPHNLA
Procedure, shortened: (§1)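 Compounds tested as 11-point 3-fold serial dilutions against the JH2 domain in a Tb-antibody/tracer FRET binding format. Plates incubated 60 min at 25° C, then overnight at 4° C, before FRET reading.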

JAK1-JH2 domain = biological target: T2, JAK1-JH2 domain (Homo sapiens, UniProt P23458); experiment: Binding activity test for JH2 domain of JAK1 (Tb-antibody/tracer FRET)
T2 construct: IC50 on JH2 domain activity (nM)
T2 sequence (P23458 583-855 limits assumed): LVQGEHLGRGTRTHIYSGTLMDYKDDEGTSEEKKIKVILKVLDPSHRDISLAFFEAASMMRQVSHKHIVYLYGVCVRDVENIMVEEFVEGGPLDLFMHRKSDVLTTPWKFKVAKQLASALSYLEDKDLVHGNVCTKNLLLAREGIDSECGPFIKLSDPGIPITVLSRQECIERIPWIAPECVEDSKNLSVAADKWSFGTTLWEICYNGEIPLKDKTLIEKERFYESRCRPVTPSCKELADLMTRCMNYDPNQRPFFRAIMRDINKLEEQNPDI
Procedure, shortened: as §1

[1] = biological target: T3, Ba/F3-FL-TYK2-P760L cells (Homo sapiens, UniProt P29597, P760L, cells depend on it); experiment: Anti-proliferative assay, Ba/F3-FL-TYK2-P760L cells (Cell-Titer Glo); format: cell-based; conditions: 72 h, read-out: BaF3-FL-T2P760L IC50
T3 construct: BaF3-FL-T2P760L (nM)
T3 sequence (P29597 whole entry P760L): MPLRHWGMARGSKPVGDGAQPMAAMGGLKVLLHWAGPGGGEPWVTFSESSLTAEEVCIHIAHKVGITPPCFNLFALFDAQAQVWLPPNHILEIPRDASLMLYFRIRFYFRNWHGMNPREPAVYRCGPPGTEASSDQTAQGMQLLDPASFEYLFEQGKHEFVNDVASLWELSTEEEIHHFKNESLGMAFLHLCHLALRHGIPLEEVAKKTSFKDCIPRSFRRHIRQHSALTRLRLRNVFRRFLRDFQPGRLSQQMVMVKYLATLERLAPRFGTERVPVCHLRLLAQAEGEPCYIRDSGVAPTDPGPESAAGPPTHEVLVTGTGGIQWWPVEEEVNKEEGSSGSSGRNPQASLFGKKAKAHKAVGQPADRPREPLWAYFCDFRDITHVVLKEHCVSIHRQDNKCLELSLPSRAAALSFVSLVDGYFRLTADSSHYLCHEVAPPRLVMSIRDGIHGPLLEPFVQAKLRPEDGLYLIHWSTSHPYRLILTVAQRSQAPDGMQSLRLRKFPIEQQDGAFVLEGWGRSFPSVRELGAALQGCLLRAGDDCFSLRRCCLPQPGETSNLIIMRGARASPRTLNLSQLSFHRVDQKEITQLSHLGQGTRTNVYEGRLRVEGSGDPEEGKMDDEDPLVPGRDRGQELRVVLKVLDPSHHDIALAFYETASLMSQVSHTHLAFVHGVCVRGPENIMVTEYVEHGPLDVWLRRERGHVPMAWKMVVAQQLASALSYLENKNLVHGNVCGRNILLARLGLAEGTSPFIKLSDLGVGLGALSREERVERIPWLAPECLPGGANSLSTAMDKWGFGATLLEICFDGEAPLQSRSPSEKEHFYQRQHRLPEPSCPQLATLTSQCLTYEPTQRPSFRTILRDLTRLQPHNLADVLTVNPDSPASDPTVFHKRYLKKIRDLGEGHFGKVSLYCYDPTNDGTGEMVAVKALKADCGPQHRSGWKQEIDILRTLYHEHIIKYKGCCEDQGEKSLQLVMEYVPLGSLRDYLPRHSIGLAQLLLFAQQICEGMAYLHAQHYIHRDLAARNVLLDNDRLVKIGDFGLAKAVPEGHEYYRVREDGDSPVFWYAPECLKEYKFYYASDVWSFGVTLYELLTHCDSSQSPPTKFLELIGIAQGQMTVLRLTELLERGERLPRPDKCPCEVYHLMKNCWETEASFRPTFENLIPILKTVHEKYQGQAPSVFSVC
Procedure, shortened: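 Ba/F3 cells made IL-3-independent by TEL-fused or full-length mutant JAK-family kinases, seeded at 2000/well and dosed after 24 h with 9 three-fold dilutions topping at 20 μM. Viability after 72 h at 37 °C, 5% CO2 by Cell-Titer Glo ATP luminescence.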

[2] = Plasma protein binding by equilibrium dialysis; format: in vitro ADME; conditions: human plasma, equilibrium dialysis 5 hours at 37° C.; read-out: % Bound (human) (converted)
Experimental: Plasma Protein Binding by Equilibrium Dialysis
Aliquots of test compound stock solution and warfarin stock solution were spiked into plasma to give the matrix solutions with theoretical concentrations of test compound at 0.2 and 2 μM or warfarin at 2 μM. Immediately transfer 50 μL of the spiked plasma solution suspension to a 96-well plate to act as T=0 control sample. Assemble the dialysis set up following the manufacturer's instructions. Load cells with 150 μL of plasma sample and dialyzed against equal volume of dialysis buffer (PBS). The assay is performed in duplicate. Cover the unit with gas permeable lid and incubate for 5 hours at 37° C. at 100 rpm in a constant temperature shaking box. At the end of incubation, remove lid and pipette 50 μL of post-dialysis samples from both buffer and plasma solution chambers into separated 96-well plate for analysis, respectively. Add 50 μL of plasma solution to the buffer samples, and an equal volume of PBS to the collected plasma solution samples. Shake the plate at 1000 rpm for 2 minutes and add 600 μL of 50% ACN/MeOH containing an appropriate internal standard (IS) to precipitate protein and release compound. Vortex at 1000 rpm for 10 minutes. Centrifuge for 10 minutes at 4000 rpm. Then transfer 75 μL of the supernatant to new 96-well plates for analysis. Add 150 μL of distilled water to each sample and mix for analysis by LC-MS/MS.
The free rate (% Unbound), binding rate (% Bound), and recovery rate (% Recovery) of the compound are calculated as follows: […]

[3] = Microsomal metabolic stability assay; format: in vitro ADME; conditions: pH 7.4, 0.5 mg/mL protein, 1 μM compound
Procedure, shortened: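 Test article at 1 μM with 0.5 mg/mL microsomal protein and 2 mM NADPH, in 100 mM potassium phosphate pH 7.4 with 1.0 mM EDTA at 37 °C. Sampled at 0–45 min and quantified by LC/MS/MS. T1/2 from the slope of ln % remaining vs time.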

pSTAT1 = experiment: Phosphorylation inhibition of STAT in human whole blood, IFN-alpha stimulated (flow cytometry); format: cell-based; conditions: 20 min; human whole blood, IFN-alpha 20 mins, CD3 cells; read-out: IC50 on pSTAT1 inhibition in h WB
Experimental: Phosphorylation Inhibition of STAT in Human PBMC and Human Whole Blood Testing:
The inhibitory potential of test articles in human PBMC and human whole blood assay was evaluated by the method of flow cytometry.
IFN-alpha will activate JAK1 and TYK2 kinase in T cells by binding to IFN receptors, and then lead to phosphorylation of STAT1 and STAT2. The phosphorylated STAT1 enter nuclear and promote transcription and expression of IFN-gamma. To evaluate the efficacy of TYK2i in T cells, freshly prepared human PBMC or freshly collected human whole blood will be stimulated with certain unit of human IFN-alpha (Universal Type I IFN(1MU), R&D, 11200-2) for 20 mins in incubator. After stimulation, fix cells with Phosflow™ Fix Buffer I (BD, 557870), and then collect fixed cells by centrifugation (500 g, 8 min). Wash cells once with pre-cooled PBS, and then permeabilize cells with cold Perm Buffer III buffer (BD, 558050) for 45 mins on ice. Collect cells by centrifugation (600 g, 8 min) and washed twice with cold PBS. Stain cells with anti-human CD3 (FITC Mouse Anti-Human CD3, BD, 555332) and anti-pSTAT1_Y701(Alexa Fluor 647 Mouse Anti-Stat1 (pY701), BD, 612597) antibodies. Detect pSTAT1 by flow cytometry (CytoFlex S) and analyze data with FlowJo and GraphPad Prism 8 software. IC50 values of test articles were determined using 4-parameter logistic equation.

[4] = Hepatocytes metabolic stability assay; format: in vitro ADME; conditions: cryopreserved hepatocytes, human hepatocytes, 1.0×10^6 cells/mL
Experimental: Hepatocytes Metabolic Stability Assay
The vials of cryopreserved hepatocytes were removed from the liquid nitrogen container and immediately immersed in a 37° C. water bath for approximately 2 min. The melted ice pellets were transferred into tubes containing 50 mL of pre-warmed thawing medium and mixed well by gently inverting the tubes, and then centrifuged at 500 rpm for 3 minutes at room temperature. The supernatants were discarded, and cell pellets were re-suspended by adding appropriate volumes of pre-warmed incubation medium. The cells viability of each species was determined using Trypan Blue exclusion. Add 50 μL of pre-warmed 2× dosing solution to the wells designated for different time points. Then 50 μL of cells suspension (2×10^6 cells/mL) were added into appropriate wells at corresponding time points of T15, T30, T60, T120. Start timing and put the plate in an incubator at 37° C. For TO sample, add 300 μL of ACN containing internal standard to the wells, mix gently, then add 50 μL of pre-warmed hepatocytes solution (2×10^6 cells/mL). The concentration of test compound was 1 μM and 1.0×10^6 cells/mL in the final incubation. At each corresponding time point, test and control compounds reaction samples were stopped by adding 300 μL acetonitrile containing internal standard. All sample plates were thoroughly mixed and centrifuged at 5000×g for 15 minutes. The supernatants were diluted at ratio of 1:1 with ultra-pure water for test and positive controls. Then submitted for LC-MS/MS analysis.
The analyte/internal standard peak area ratios were converted to percentage remaining with the following equation: […]
The in vitro elimination constant, k of test compounds and control compounds were calculated from a log linear plot of % Remaining versus time, then the half-life (T1/2), the estimation of the in vitro hepatic intrinsic clearance (CLint) values were calculated from substrate disappearance rate in hepatocytes incubation: […]

[5] = dog liver microsomes, read-out: Dog LM Clint
[6] = dog liver microsomes, read-out: Dog LM T½
[7] = human liver microsomes, read-out: Human LM Clint
[8] = human liver microsomes, read-out: Human LM T½
[9] = rat liver microsomes, read-out: Rat LM Clint
[10] = rat liver microsomes, read-out: Rat LM T½

SMILES	IC50 (TYK2-JH2 domain)	JAK1/TYK2 selectivity (TYK2-JH2 domain)	IC50 (JAK1-JH2 domain)	GI50 [1]	fraction unbound at 5 h [2]	microsomal CLint at 1 μM [3, 5]	half-life at 1 μM [3, 6]	microsomal CLint at 1 μM [3, 7]	half-life at 1 μM [3, 8]	microsomal CLint at 1 μM [3, 9]	half-life at 1 μM [3, 10]	IC50 (pSTAT1)	CLint scaled at 1 μM ([4]; read-out: Human hepatocyte Clint(liver))	half-life at 1 μM ([4]; read-out: Human hepatocyte stability T1/2)
[2H]C([2H])([2H])NC(=O)c1cnc(NC(=O)C2CC2)cc1Nc1ccn2ncc(CO)c2c1OC [Example 225, 6-(Cyclopropanecarboxamido)-4-((3-(hydroxymethyl)-4-methoxypyrazolo[1,5-a]pyridin-5-yl)amino)-N-(methyl-d3)nicotinamide]	0.868 nM	17.5	15.2 nM	565 nM	0.346									
[2H]C([2H])([2H])NC(=O)c1cnc(NC(=O)C2CC2)cc1Nc1cn(C)c2c(F)cn(CC(F)F)c(=O)c12 [Example 158, 6-(Cyclopropanecarboxamido)-4-((5-(2,2-difluoroethyl)-7-fluoro-1-methyl-4-oxo-4,5-dihydro-1H-pyrrolo[3,2-c]pyridin-3-yl)amino)-N-(methyl-d3)nicotinamide]	0.948 nM			68.4 nM	0.039	< 7.4 µL/min/mg	> 3.11 h	15.2 µL/min/mg	1.52 h	26.4 µL/min/mg	0.875 h			
[2H]C([2H])([2H])NC(=O)c1cnc(NC(=O)C2CC2)cc1Nc1nn(C)c2ccn(CC(F)(F)F)c(=O)c12 [Example 53, 6-(Cyclopropanecarboxamido)-N-(methyl-d3)-4-((1-methyl-4-oxo-5-(2,2,2-trifluoroethyl)-4,5-dihydro-1H-pyrazolo[4,3-c]pyridin-3-yl)amino)nicotinamide]	0.293 nM			144 nM	0.286									
CNC(=O)c1cnc(NC(=O)C2CC2)nc1Nc1cccc(-c2ncn(C)n2)c1OC [Example 65, 2-(Cyclopropanecarboxamido)-4-((2-methoxy-3-(1-methyl-1H-1,2,4-triazol-3-yl)phenyl)amino)-N-methylpyrimidine-5-carboxamide]				172 nM	0.061									
CNC(=O)c1cnc(NC(=O)C2CC2)cc1Nc1nn(C)c2ccn(CC(F)(F)F)c(=O)c12 [Example 52, 6-(Cyclopropanecarboxamido)-N-methyl-4-((1-methyl-4-oxo-5-(2,2,2-trifluoroethyl)-4,5-dihydro-1H-pyrazolo[4,3-c]pyridin-3-yl)amino)nicotinamide]				127 nM	0.041	11.1 µL/min/mg	2.08 h	8.05 µL/min/mg	2.87 h	30.8 µL/min/mg	0.75 h			
[2H]C([2H])([2H])NC(=O)c1cnc(NC(=O)C2CC2)cc1Nc1csc2ncn(CC)c(=O)c12 [Example 216, 6-(Cyclopropanecarboxamido)-4-((3-ethyl-4-oxo-3,4-dihydrothieno[2,3-d]pyrimidin-5-yl)amino)-N-(methyl-d3)nicotinamide]	0.525 nM			181 nM	0.041									
[2H]C([2H])([2H])NC(=O)c1cnc(NC(=O)C2CC2)cc1Nc1nn(CCCOC)c2ccn(CC(F)(F)F)c(=O)c12 [Example 96, 6-(Cyclopropanecarboxamido)-4-((1-(3-methoxypropyl)-4-oxo-5-(2,2,2-trifluoroethyl)-4,5-dihydro-1H-pyrazolo[4,3-c]pyridin-3-yl)amino)-N-(methyl-d3)nicotinamide]				351 nM	0.171			16.7 µL/min/mg	1.38 h					
[2H]C([2H])([2H])NC(=O)c1cnc(Nc2ccn(C)n2)cc1Nc1cc(F)c2cnn(CC)c2c1OC [Example 151, 4-((1-Ethyl-4-fluoro-7-methoxy-1H-indazol-6-yl)amino)-N-(methyl-d3)-6-((1-methyl-1H-pyrazol-3-yl)amino)nicotinamide]	0.46 nM	28.5	13.1 nM	77.7 nM		46.8 µL/min/mg	0.494 h	63.5 µL/min/mg	0.364 h	66.3 µL/min/mg	0.348 h	1860 nM	9.1 mL/min/kg	3.23 h
